According to ChEMBL document CHEMBL1140747, “Discovery of potent and selective dipeptidyl peptidase IV inhibitors derived from beta-aminoamides bearing subsituted triazolopiperazines” (J Med Chem, 2008):

Assays:
[1] = Half life in rat at 1 mg/kg, iv and 2 mg/kg, po; type: ADME, organism-based; conditions: in vivo
[2] = target: Dipeptidyl peptidase 9 (Homo sapiens, UniProt Q86TI2); experiment: Inhibition of DPP9
[3] = target: Dipeptidyl peptidase 2 (Homo sapiens, UniProt Q9UHL4); experiment: Inhibition of QPP
[4] = target: T1, Xaa-Pro dipeptidase (Homo sapiens, UniProt P12955); experiment: Inhibition of prolidase
T1 sequence (P12955 whole entry): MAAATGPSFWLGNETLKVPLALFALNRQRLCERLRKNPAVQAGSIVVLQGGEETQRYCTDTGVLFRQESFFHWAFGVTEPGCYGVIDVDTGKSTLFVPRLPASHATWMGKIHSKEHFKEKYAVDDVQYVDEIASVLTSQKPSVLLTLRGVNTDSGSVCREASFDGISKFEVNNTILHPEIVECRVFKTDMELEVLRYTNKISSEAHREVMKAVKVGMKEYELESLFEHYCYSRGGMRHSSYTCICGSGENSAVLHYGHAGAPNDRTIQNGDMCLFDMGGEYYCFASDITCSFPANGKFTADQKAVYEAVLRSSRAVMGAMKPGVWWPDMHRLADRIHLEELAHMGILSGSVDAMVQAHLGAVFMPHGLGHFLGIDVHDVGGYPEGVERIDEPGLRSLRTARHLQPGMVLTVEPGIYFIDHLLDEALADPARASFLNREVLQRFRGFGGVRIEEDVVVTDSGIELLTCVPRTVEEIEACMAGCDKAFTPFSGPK

[5] = target: Dipeptidyl peptidase 8 (Homo sapiens, UniProt Q6V1X1); experiment: Inhibition of DPP8
Dipeptidyl peptidase 8, sequence (Q6V1X1 whole entry): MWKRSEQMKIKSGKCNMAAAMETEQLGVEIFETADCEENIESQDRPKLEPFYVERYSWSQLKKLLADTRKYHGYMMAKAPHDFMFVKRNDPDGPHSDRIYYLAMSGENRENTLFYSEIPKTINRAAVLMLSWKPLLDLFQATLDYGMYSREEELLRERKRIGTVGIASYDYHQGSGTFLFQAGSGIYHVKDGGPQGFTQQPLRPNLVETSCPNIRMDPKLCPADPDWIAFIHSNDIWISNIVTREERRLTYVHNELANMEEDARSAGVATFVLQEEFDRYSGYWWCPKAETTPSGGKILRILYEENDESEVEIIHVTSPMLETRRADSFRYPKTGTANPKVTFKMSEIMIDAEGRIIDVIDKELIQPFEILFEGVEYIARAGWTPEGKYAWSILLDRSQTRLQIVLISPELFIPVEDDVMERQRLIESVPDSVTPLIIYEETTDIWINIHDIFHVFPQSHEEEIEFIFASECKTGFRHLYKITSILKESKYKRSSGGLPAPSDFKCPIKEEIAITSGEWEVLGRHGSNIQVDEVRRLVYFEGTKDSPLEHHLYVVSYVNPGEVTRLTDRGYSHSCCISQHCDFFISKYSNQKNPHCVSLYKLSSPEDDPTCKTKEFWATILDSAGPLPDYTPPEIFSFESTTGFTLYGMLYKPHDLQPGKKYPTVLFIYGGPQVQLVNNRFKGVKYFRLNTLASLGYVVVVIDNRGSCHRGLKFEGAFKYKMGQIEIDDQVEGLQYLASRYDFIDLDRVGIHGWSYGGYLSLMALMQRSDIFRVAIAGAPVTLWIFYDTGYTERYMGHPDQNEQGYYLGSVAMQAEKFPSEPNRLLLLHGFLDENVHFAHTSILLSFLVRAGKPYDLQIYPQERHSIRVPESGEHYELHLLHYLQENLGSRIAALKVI

[6] = target: Dipeptidyl peptidase 4 (Homo sapiens, UniProt P27487)
Dipeptidyl peptidase 4, sequence (P27487 whole entry): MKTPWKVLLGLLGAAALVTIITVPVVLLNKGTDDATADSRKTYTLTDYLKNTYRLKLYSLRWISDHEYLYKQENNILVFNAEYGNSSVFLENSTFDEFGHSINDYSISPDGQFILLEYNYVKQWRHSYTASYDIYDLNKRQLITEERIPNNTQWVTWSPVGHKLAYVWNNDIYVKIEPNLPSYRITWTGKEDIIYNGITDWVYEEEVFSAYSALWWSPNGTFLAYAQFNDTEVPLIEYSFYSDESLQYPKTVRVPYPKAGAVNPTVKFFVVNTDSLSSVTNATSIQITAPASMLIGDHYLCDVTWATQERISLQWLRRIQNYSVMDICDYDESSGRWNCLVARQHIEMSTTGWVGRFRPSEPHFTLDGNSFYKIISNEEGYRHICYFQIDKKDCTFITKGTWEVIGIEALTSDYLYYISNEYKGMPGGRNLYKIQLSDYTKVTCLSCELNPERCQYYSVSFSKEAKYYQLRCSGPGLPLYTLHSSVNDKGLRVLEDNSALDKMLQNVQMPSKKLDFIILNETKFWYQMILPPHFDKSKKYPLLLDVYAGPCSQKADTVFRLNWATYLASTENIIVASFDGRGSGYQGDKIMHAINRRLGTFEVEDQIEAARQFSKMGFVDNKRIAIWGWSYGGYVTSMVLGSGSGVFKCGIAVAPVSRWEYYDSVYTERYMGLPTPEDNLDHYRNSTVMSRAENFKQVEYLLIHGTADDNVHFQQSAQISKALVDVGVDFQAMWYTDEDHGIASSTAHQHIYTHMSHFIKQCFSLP

[7] = Cmax in rat at 2 mg/kg, po; type: ADME, organism-based; design: dose 2 mg/kg, route oral; conditions: in vivo
[8] = Plasma clearance in rat at 1 mg/kg, iv and 2 mg/kg, po; type: ADME, organism-based
[9] = target: Xaa-Pro aminopeptidase 1 (Homo sapiens, UniProt Q9NQW7); experiment: Inhibition of amino peptidase P
Xaa-Pro aminopeptidase 1, sequence (Q9NQW7 whole entry): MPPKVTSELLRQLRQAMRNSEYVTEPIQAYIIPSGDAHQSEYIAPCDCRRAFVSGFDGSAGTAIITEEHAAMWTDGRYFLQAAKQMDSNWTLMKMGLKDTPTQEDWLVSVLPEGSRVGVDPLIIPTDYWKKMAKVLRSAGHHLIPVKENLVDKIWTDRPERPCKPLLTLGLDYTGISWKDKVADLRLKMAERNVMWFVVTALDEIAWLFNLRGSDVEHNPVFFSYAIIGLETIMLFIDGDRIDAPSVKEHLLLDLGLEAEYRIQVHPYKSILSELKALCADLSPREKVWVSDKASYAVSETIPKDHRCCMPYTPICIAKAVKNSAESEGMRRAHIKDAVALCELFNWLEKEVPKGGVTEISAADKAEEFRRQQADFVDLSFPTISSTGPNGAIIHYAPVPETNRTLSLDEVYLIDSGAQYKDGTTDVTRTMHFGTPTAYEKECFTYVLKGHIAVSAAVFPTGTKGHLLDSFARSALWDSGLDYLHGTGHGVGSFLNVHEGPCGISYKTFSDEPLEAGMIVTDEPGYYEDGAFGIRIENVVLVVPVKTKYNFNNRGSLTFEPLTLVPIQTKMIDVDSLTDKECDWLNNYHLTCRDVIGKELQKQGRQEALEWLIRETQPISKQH

[10] = (§1) Oral bioavailability in rat at 2 mg/kg; type: ADME, organism-based; conditions: in vivo
[11] = target: T2, Prolyl endopeptidase FAP (Homo sapiens, UniProt Q12884); experiment: Inhibition of FAP
T2 sequence (Q12884 whole entry): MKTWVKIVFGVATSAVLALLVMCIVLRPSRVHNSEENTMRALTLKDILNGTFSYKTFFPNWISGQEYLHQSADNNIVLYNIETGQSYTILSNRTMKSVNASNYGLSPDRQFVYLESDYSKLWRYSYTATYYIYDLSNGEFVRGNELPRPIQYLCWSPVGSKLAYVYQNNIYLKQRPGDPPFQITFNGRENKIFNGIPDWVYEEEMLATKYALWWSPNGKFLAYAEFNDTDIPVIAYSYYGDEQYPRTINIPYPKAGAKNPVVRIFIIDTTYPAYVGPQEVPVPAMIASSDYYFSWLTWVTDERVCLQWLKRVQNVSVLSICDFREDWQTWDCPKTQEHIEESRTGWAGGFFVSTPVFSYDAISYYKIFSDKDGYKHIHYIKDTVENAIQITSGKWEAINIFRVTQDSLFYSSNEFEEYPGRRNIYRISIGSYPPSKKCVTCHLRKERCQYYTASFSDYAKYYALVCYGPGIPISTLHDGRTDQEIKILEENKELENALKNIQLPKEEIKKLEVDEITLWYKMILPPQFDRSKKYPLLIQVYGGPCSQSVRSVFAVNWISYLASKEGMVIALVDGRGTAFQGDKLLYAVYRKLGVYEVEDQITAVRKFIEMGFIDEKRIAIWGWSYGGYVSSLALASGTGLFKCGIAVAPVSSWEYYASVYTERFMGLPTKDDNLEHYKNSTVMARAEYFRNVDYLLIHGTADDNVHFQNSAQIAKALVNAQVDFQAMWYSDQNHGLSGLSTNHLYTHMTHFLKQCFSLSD

[12] = test system: Rattus norvegicus; experiment: as §1; type: ADME, organism-based; conditions: in vivo

Dipeptidyl peptidase 9, sequence (Q86TI2 whole entry): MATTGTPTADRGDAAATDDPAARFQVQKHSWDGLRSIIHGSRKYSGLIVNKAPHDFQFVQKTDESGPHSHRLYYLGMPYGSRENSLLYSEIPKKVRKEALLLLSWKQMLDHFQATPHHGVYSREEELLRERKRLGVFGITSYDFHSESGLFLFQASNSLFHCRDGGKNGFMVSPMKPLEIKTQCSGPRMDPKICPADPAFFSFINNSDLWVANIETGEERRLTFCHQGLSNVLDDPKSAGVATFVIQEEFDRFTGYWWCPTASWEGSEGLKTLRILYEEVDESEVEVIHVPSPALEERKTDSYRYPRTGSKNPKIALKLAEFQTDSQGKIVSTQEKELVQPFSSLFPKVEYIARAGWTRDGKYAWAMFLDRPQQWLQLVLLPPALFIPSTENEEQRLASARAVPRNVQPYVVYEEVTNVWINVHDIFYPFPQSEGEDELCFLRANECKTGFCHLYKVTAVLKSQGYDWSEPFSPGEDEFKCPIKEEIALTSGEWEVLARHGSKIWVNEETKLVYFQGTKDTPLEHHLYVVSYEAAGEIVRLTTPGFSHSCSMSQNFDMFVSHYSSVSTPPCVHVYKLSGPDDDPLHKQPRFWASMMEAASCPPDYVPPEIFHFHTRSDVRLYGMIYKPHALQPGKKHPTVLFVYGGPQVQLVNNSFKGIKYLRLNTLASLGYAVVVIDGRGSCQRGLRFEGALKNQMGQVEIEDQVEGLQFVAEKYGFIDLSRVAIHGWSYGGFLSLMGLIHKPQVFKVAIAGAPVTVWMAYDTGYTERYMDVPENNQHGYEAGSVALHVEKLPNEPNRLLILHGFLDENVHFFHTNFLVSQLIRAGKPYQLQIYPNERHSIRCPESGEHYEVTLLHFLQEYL

Row | SMILES | half-life [1] [h] | IC50 [2] [µM] | IC50 [3] [µM] | IC50 [4] [µM] | IC50 [5] [µM] | IC50 [6] [µM] | Cmax [7] [nM] | clearance [8] [mL/min/kg] | IC50 [9] [µM] | bioavailability [10] [%] | IC50 [11] [µM] | F [12] [%]
1 | Cl.N[C@@H](CC(=O)N1CCn2c(nnc2C(F)(F)F)C1Cc1cc(C(F)(F)F)cc(C(F)(F)F)c1)Cc1cc(F)c(F)cc1F (stereo in doubt; 48b) | 4.1 | > 100 | > 100 | > 10 | > 100 | 0.0063 | 42 | 50 | > 10 | 19 | > 10 | 
2 | N[C@@H](CC(=O)N1CCn2c(nnc2C(F)(F)F)C1CC(F)(F)F)Cc1cc(F)c(F)cc1F (stereo in doubt; 39b) |  | 26 | 60 | > 10 | 1.6 | 0.0057 |  |  | > 10 |  | > 10 | 
3 | CC1c2nnc(C(F)(F)F)n2C(C)CN1C(=O)C[C@H](N)Cc1cc(F)c(F)cc1F (stereo in doubt; 16d) |  | 62 | > 100 | > 10 | 44 | 0.011 |  |  | > 10 |  | > 10 | 
4 | CC1(C)c2nnc(C(F)(F)F)n2CCN1C(=O)C[C@H](N)Cc1cc(F)c(F)cc1F |  | 20 | 23 | > 10 | 6 | 0.175 |  |  | > 10 |  | > 10 | 
5 | C[C@@H]1c2nnc(C(F)(F)F)n2[C@H](C)CN1C(=O)C[C@H](N)Cc1cc(F)c(F)cc1F.Cl | 2.1 | 52 | > 100 | > 10 | 70 | 0.012 | 92 | 85 | > 10 | 45 | > 10 | 
6 | C[C@H]1c2nnc(C(F)(F)F)n2CCN1C(=O)C[C@H](N)Cc1cc(F)c(F)cc1F |  | > 100 | > 100 | > 10 | > 100 | 0.088 |  |  | > 10 |  | > 10 | 
7 | N[C@@H](CC(=O)N1CCn2c(nnc2C(F)(F)F)[C@@H]1Cc1ccc(F)cc1)Cc1cc(F)c(F)cc1F |  | > 100 | 39 | > 10 | > 100 | 0.116 |  |  | > 10 |  | > 10 | 
8 | C[C@@H]1CN(C(=O)C[C@H](N)Cc2cc(F)c(F)cc2F)Cc2ccc(C(F)(F)F)n21.Cl | 1.9 | 53 | > 100 | > 10 | 33 | 0.014 |  | 154 | > 10 | 35 | > 10 | 
9 | N[C@@H](CC(=O)N1CCn2c(nnc2C(F)(F)F)C1Cc1ccccn1)Cc1cc(F)c(F)cc1F (stereo in doubt; 49a) |  | > 100 | > 100 | > 10 | > 100 | 0.132 |  |  | > 10 |  | > 10 | 
10 | CN(C)C(=O)CC1c2nnc(C(F)(F)F)n2CCN1C(=O)C[C@H](N)Cc1cc(F)c(F)cc1F (stereo in doubt; 41a) |  | > 100 | > 100 | > 10 | > 100 | 0.377 |  |  | > 10 |  | > 10 | 
11 | N[C@@H](CC(=O)N1CCn2c(nnc2C(F)(F)F)C1C(O)c1ccc(F)cc1)Cc1cc(F)c(F)cc1F (stereo in doubt; 47d) |  | > 100 | 41 | > 10 | 0.628 | 0.0005 |  |  | > 10 |  | > 10 | 
12 | Cl.N[C@@H](CC(=O)N1CCn2c(nnc2C(F)(F)F)C1)Cc1cc(F)c(F)cc1F | 1.7 |  |  | > 10 |  |  |  | 60 | > 10 |  |  | 76

Continued, values first:

Row | half-life [1] [h] | IC50 [2] [µM] | IC50 [3] [µM] | IC50 [4] [µM] | IC50 [5] [µM] | IC50 [6] [µM] | Cmax [7] [nM] | clearance [8] [mL/min/kg] | IC50 [9] [µM] | bioavailability [10] [%] | IC50 [11] [µM] | F [12] [%] | SMILES
13 | 1.9 | > 100 | > 100 | > 10 | 5 | 0.0004 | 16 | 94 | > 10 | 9 | > 10 |  | Cl.N[C@@H](CC(=O)N1CCn2c(nnc2C(F)(F)F)C1Cc1ccccn1)Cc1cc(F)c(F)cc1F (stereo in doubt; 49b)
14 | 1.4 | 39 | 47 | > 10 | 1.1 | 0.00046 | 64 | 74 | > 10 | 26 | > 10 |  | Cl.N[C@@H](CC(=O)N1CCn2c(nnc2C(F)(F)F)C1Cc1ccccc1F)Cc1cc(F)c(F)cc1F (stereo in doubt; 45b)
15 |  | 18 | 57 | > 10 | 0.367 | 0.00043 |  |  | > 10 |  | > 10 |  | COc1ccc(CC2c3nnc(C(F)(F)F)n3CCN2C(=O)C[C@H](N)Cc2cc(F)c(F)cc2F)cc1 (stereo in doubt; 43b)
16 |  | 41 | 33 | > 10 | 3 | 0.0015 |  |  | > 10 |  | > 10 |  | C=CCC1c2nnc(C(F)(F)F)n2CCN1C(=O)C[C@H](N)Cc1cc(F)c(F)cc1F (stereo in doubt; 40a)
17 |  | > 100 | 87 | > 10 | > 100 | 0.14 |  |  | > 10 |  | > 10 |  | N[C@@H](CC(=O)N1CCn2c(nnc2C(F)(F)F)C1Cc1ccccc1)Cc1cc(F)c(F)cc1F (single isomer, unassigned)
18 |  | > 100 | > 100 | > 10 | > 100 | 0.32 |  |  | > 10 |  | > 10 |  | COc1ccc(CC2c3nnc(C(F)(F)F)n3CCN2C(=O)C[C@H](N)Cc2cc(F)c(F)cc2F)cc1 (stereo in doubt; 43a)
19 | 2.7 | > 100 | > 100 | > 10 | 30 | 0.0028 | 4 | 87 | > 10 | 9 | > 10 |  | CN(C)C(=O)CC1c2nnc(C(F)(F)F)n2CCN1C(=O)C[C@H](N)Cc1cc(F)c(F)cc1F.Cl (stereo in doubt; 41b)
20 |  | 53 | 74 | > 10 | > 100 | 0.091 |  |  | > 10 |  | > 10 |  | C[C@H]1Cn2c(nnc2C(F)(F)F)CN1C(=O)C[C@H](N)Cc1cc(F)c(F)cc1F
21 |  | > 100 | 47 | > 10 | 8 | 0.005 |  |  | > 10 |  | > 10 |  | CCC1c2nnc(C(F)(F)F)n2CCN1C(=O)C[C@H](N)Cc1cc(F)c(F)cc1F (stereo in doubt; 38b)
22 |  | > 100 | 30 | > 10 | > 100 | 0.123 |  |  | > 10 |  | > 10 |  | N[C@@H](CC(=O)N1CCn2c(nnc2C(F)(F)F)C1CC(F)(F)F)Cc1cc(F)c(F)cc1F (stereo in doubt; 39a)
23 | 2.6 | 89 | 36 | > 10 | 0.326 | 0.00032 | 20 | 63 | > 10 | 8 | > 10 |  | Cl.N[C@@H](CC(=O)N1CCn2c(nnc2C(F)(F)F)C1C(O)c1ccc(F)cc1)Cc1cc(F)c(F)cc1F (stereo in doubt; 47b)
24 |  | > 100 | 62 | > 10 | 72 | 0.032 |  |  | > 10 |  | > 10 |  | C=CCC1c2nnc(C(F)(F)F)n2CCN1C(=O)C[C@H](N)Cc1cc(F)c(F)cc1F (stereo in doubt; 40b)
